US9315602B2, “Method for producing olefin polymer” (Mitsui Chemicals, Inc., priority 2012, dated 2016)

Key:
[1] = Solubility of bridged metallocene compound in n-hexane at 25° C.; settings: nitrogen atmosphere, 10 mg of catalyst
[2] = Propylene polymerization with catalyst solution (polymerization activity)
Protocol: An autoclave made of SUS and having an inner volume of 15 mL was thoroughly purged with nitrogen, and 0.4 mL (0.05 M, 20 μmol) of triisobutylaluminum and 2.7 mL of a solvent which served as a polymerization solvent and in which cyclohexane and hexane had been mixed with each other at a mixing ratio of cyclohexane:hexane=9:1 (volume ratio) were put into the autoclave. The content was stirred at 600-times rotation per minute. […]
Under a nitrogen atmosphere, 2.5 mg (molecular weight: 835.07 g/mol) of the catalyst (a) which served as a bridged metallocene compound was put into a Schlenk flask and dissolved in 5.5 mL of hexane. Then, 0.36 mL of a suspension of modified methylaluminoxane (n-hexane solvent, 4.15 M and 1.49 mmol on an aluminum atom basis) was added thereto at room temperature under stirring to prepare a catalyst solution in which the concentration of the catalyst (a) was 0.00051 M.
The catalyst solution was held at room temperature under a nitrogen atmosphere for 30 minutes, 0.2 mL (0.00051 M, 0.10 μmol) of the catalyst solution and 0.7 mL of a solvent which served as a polymerization solvent and in which cyclohexane and hexane had been mixed with each other at a mixing ratio of cyclohexane:hexane=9:1 (volume ratio) were subsequently put into the autoclave, and then the temperature was increased to 65° C. to initiate polymerization. […]

Compound	solubility determined from the amount of n-hexane necessary for the dissolution [1]	polymerization activity ([2]; Example 1: propylene 7 bar, 9 minutes, catalyst solution 0.00051 M held 30 minutes, modified methylaluminoxane) [kg-PP/mmol-Zr·hr]	polymerization activity ([2]; Comparative Example 1: propylene 7 bar, 10 minutes, supernatant catalyst solution held 30 minutes, assuming catalyst concentration 0.00050 M) [kg-PP/mmol-Zr·hr]
CC(C)(C)c1cc2c3cc(C(C)(C)C)c(-c4ccccc4)cc3[c-](C(Cc3ccccc3)(Cc3ccccc3)[c-]3cccc3)c2cc1-c1ccccc1.[Cl-].[Cl-].[Zr+4] [catalyst (h), Dibenzylmethylene(cyclopentadienyl)(2,7-diphenyl-3,6-di-tert-butylfluorenyl)zirconium Dichloride, reference compound]	not more than 0.278 mmol/L	–	–
Benzyl(p-chlorophenyl)methylene(cyclopentadienyl)(2,7-di-p-chlorophenyl-3,6-di-tert-butylfluorenyl)zirconium Dichloride [catalyst (d)]	901 µM	–	–
Benzyl(p-chlorophenyl)methylene(cyclopentadienyl)(2,7-diphenyl-3,6-di-tert-butylfluorenyl)zirconium Dichloride [catalyst (c)]	1585 µM	–	–
Benzyl(phenyl)methylene(cyclopentadienyl)(2,7-di-p-chlorophenyl-3,6-di tert-butylfluorenyl)zirconium Dichloride [catalyst (b)]	4098 µM	–	–
Benzyl(phenyl)methylene(cyclopentadienyl)(2,7-diphenyl-3,6-di-tert-butylfluorenyl)zirconium Dichloride [catalyst (a)]	1005 µM	39.90	–
Diphenylmethylene(cyclopentadienyl)(2,7-diphenyl-3,6-di-tert-butylfluorenyl)zirconium Dichloride [catalyst (g), reference compound]	not more than 0.211 mmol/L	–	3.00
Methyl(p-tolyl)methylene(cyclopentadienyl)(2,7-diphenyl-3,6-di-tert-butylfluorenyl)zirconium Dichloride [catalyst (e)]	6221 µM	–	–
n-octyl(phenyl)methylene(cyclopentadienyl)(2,7-diphenyl-3,6-di-tert-butylfluorenyl)zirconium Dichloride [catalyst (f)]	7683 µM	–	–
